Key:
APESV = assay: greenhouse pre-emergence herbicidal test; format: in vivo, Apera spica-venti; conditions: pre-emergence method, application rate 0.250 kg/ha, scale from 0 to 100
Text: (§1) The culture containers used were plastic flowerpots containing loamy sand with approximately 3.0% of humus as the substrate. The seeds of the test plants were sown separately for each species.
For the pre-emergence treatment, the active ingredients, which had been suspended or emulsified in water, were applied directly after sowing by means of finely distributing nozzles. The containers were irrigated gently to promote germination and growth and subsequently covered with transparent plastic hoods until the test plants had rooted. This cover caused uniform germination of the test plants, unless this had been impaired by the active ingredients.
(§2) Depending on the species, the test plants were kept at 10-25° C. or 20-35° C., respectively.
(§3) The test period extended over 2 to 4 weeks. During this time, the test plants were tended, and their response to the individual treatments was evaluated.
(§4) Evaluation was carried out using a scale from 0 to 100. 100 means no emergence of the test plants, or complete destruction of at least the aerial moieties, and 0 means no damage, or normal course of growth. A good herbicidal activity is given at values of 65 to <90 and a very good herbicidal activity is given at values of 90 to 100.

ECHCG = assay: greenhouse post-emergence herbicidal test; format: in vivo, Echinocloa crus-galli; conditions: post-emergence method, application rate 0.250 kg/ha, scale from 0 to 100
Text: as §1
(§5) For the post-emergence treatment, the test plants were first grown to a height of 3 to 15 cm, depending on the plant habit, and only then treated with the active ingredients which had been suspended or emulsified in water. For this purpose, the test plants were either sown directly and grown in the same containers, or they were first grown separately as seedlings and transplanted into the test containers a few days prior to treatment.
as §2, §3, §4

AMARE = assay: greenhouse post-emergence herbicidal test; format: in vivo, Amaranthus retroflexus; conditions: post-emergence method, application rate 0.250 kg/ha, scale from 0 to 100
Text: as §1, §5, §2, §3, §4

Compound	herbicidal activity against APESV (APESV)	herbicidal activity against ECHCG (ECHCG)	herbicidal activity against AMARE (AMARE)
COC(C(=O)Nc1cccc2occc12)C(=O)N[C@H]1C=C[C@@H](C(=O)OC(C)C)C1 (stereo partly drawn) [I.6, isopropyl (1S,4R)-4-[[3-(benzofuran-4-ylamino)-2-methoxy-3-oxo-propanoyl]amino]cyclopent-2-ene-1-carboxylate]	very good (a very good herbicidal activity is given at values of 90 to 100)	very good (a very good herbicidal activity is given at values of 90 to 100)	–
COC(C(=O)Nc1cccc2ocnc12)C(=O)N[C@H]1C=C[C@@H](C(=O)OC(C)C)C1 (stereo partly drawn) [I.11, isopropyl (1S,4R)-4-[[3-(1,3-benzoxazol-4-ylamino)-2-methoxy-3-oxo-propanoyl]amino]cyclopent-2-ene-1-carboxylate]	–	–	very good (a very good herbicidal activity is given at values of 90 to 100)

Reference: patent publication US20240400531A1, “HERBICIDAL MALONAMIDES CONTAINING A CONDENSED RING SYSTEM” (BASF SE, priority 2021, published 2024)
